Results reported in US8742141B2, “Inhibition and treatment of prostate cancer metastasis” (Northwestern University, priority 2008, dated 2014).
Like-named read-outs stand apart in the source and are kept apart here.

Legend:
[1] = cited from earlier work
MMP-2 = test: Phase 2 trial, MMP-2 transcript by qRT/PCR in LCM normal prostate epithelial cells; assay type: in vivo, human; conditions: 2 mg genistein/kg/day
Method: Of 38 subjects completing the study, MMP-2 expression was analyzed in tissue from 12 genistein-treated subjects and 12 controls. […] MMP-2 expression was measured by removing normal prostate epithelial cells from intact fresh frozen prostate tissue by laser capture microdissection (LCM), isolating RNA, treating with DNase, assessing RNA quality by capillary electrophoresis, and measuring MMP-2 transcript levels by qRT/PCR (normalizing to GAPDH), using exon spanning primers.

[2] = system: ER promoter-luciferase reporter vector construct; test: ER promoter-luciferase reporter assay in MCF-7 cells; assay type: cell-based, human; conditions: 10 μM
Method: The genes were: TFF1 (trefoil factor 1; also known as pS2), PGR (progesterone receptor), and CPSD (cathepsin D). Gene expression was measured by isolating RNA, and performing real time quantitative reverse transcription/polymerase chain reaction (qRT/PCR), using exon spanning primers (purchased from Applied Biosystems). The expression of GAPDH was also measured, and used to normalize the expression of ER responsive genes. Data below are the mean±SD of a single experiment, performed in duplicate. […] Additionally, the ability of compound 46 to activate an ER promoter-luciferase reporter vector construct after transient transfection of the human ER positive breast cancer cell line, MCF-7, was evaluated (FIG. 31). […] “No associated control cells” were transfected with an identical vector construct that lacked the estrogen response element, i.e., noERE.

MEK4 [3] = biological target: T1, MEK4 (Homo sapiens, UniProt P45985); test: Upstate Biotechnology MEK4 assay system, inhibition of MEK4 kinase activity; assay type: biochemical; conditions: in vitro
T1 construct: purchased Upstate Biotechnology
T1 sequence (P45985 1-399): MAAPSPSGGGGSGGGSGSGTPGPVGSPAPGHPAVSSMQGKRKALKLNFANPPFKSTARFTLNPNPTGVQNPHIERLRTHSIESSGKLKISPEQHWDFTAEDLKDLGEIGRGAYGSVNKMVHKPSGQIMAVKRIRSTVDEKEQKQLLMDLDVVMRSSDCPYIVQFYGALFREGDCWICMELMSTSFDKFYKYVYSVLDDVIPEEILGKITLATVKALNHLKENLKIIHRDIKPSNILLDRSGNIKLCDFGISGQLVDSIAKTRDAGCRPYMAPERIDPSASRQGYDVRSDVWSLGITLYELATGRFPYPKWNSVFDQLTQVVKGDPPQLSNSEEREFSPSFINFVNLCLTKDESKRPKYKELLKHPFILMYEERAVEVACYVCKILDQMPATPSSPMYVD

[4] = Phase 2 trial, serious adverse events; assay type: in vivo, human; conditions: grade >/= 2 clinical toxicity, NCI Common Toxicity Criteria v 2.0; 12 subjects
[5] = system: prostate epithelial cells; test: Phase 2 trial, nuclear morphology of prostate epithelial cells; assay type: in vivo, human; conditions: genistein treated men vs controls
Text: Though morphologically “normal,” these cells are present within organs with PCa, have pre-cancer molecular changes, and represent an appropriate target cell type for therapy that inhibits a process associated with PCa progression, in this case, development of the metastatic phenotype. […] These findings are consistent with its effects in vitro and in mice.

[6] = system: PCa cell lines (PC3, PC3-M, 1532CPTX, 1542CPTX, 1532NPTX, 1542NPTX); test: Cell invasion assay of PCa cell lines (Examples 2 and 3); assay type: cell-based, human
Text: MEK expression was examined in six human prostate cancer (PCa) cell lines: PC3 and PC3-M metastatic PCa cells, 1532CPTX and 1542 CPTX immortalized localized PCa cells, and 1532 NPTX and 1542 NPTX immortalized normal epithelial cells. The last four cell lines are primary cells, are HPV transformed, and thus represent early stages of prostate carcinogenesis. They provide representative members of the metastatic phenotype, as well as members of early state phenotypes. […] All six cell lines also secrete as well as respond to TGFβ, a regulator of cell motility that plays a role in PCa cell invasiveness.
Assays were conducted using methods as described in Craft et al. (2008, Mol. Pharmocol., 73(1):235-242; herein incorporated by reference in its entirety).

human PC3-M PCa cells = test: Orthotopic PC3-M implantation metastasis model in athymic mice
MEK4 [7] = test: Phosphorylation of MEK4 in vivo (TGFβ stimulated); assay type: cell-based
Method: Phosphorylation by MEK4 (FIG. 4A) and phosphorylation of MEK4 (FIG. 7) was assayed. The Upstate Biotechnology MEK4 assay system was used to measure inhibition of MEK4 activity. Phosphorylation of MEK4 in vivo was assayed using standard techniques.

[8] = 0, 100, 250 mg genistein/kg chow
[9] = Western blot, primary tumor tissue

O=c1c(-c2ccc(O)cc2)coc2cc(O)cc(O)c12 [genistein]
tolerability ([1]; 2 to 8 mg genistein/kg, men with prostate cancer): well tolerated | peak concentration of free genistein ([1]; 2 to 8 mg genistein/kg): 66 to 170 nM | peak concentration of total genistein ([1]; 2 to 8 mg genistein/kg): 4.3 to 16.3 µM | clearance ([1]; dependence on body mass): not altered by body mass | blood genistein conjugated ([1]; in vivo): > 90% | halflife ([1]; in vivo): 15 to 22 h | MMP-2 transcript level, % of controls (mean±SEM) (MMP-2): 24±4.1% | luciferase activity [2]: induced luciferase activity | phosphorylation of JNK3 by MEK4 (MEK4 [3]): inhibits phosphorylation of JNK3 by MEK4 | serious adverse events, number [4]: 0 | increase in nuclear length [5]: 1.5±0.7% | increase in nuclear width [5]: 2.7±0.7% | increase in nuclear area ([5]; only a trend): 2.0±1.0% | cell invasion ([6]; early and late stage PCa cells): inhibits invasion of both early and late stage PCa cells | effect of genistein on invasiveness when MEK4 expression suppressed ([6]; in the presence of siMEK4): abrogated | blood concentration of total genistein (100 mg genistein/kg chow cohort): 290 ± 72 nM | blood concentration of total genistein (250 mg genistein/kg chow cohort): 1307 ± 507 nM | metastasis (human PC3-M PCa cells; [8]): decreased metastasis | tumor volume (human PC3-M PCa cells; [8]): not tumor volume | level of total p38 MAP kinase protein (human PC3-M PCa cells; [9]): increased the level of total p38 MAP kinase protein | p38 MAP kinase phosphorylation (human PC3-M PCa cells; [9]): decreased its phosphorylation | weight of mice (human PC3-M PCa cells; between cohorts): no difference | TGFβ increased MEK4 phosphorylation (MEK4 [7]): does not block such phosphorylation
